Results from US20200147149A1, “COMPOSITIONS AND METHODS FOR THE MODULATION OF GUT SENSORY CELLS” (Duke University, priority 2017, published 2020).
“Also recorded” adds a separate entry of the source.

Tests used:
iGluSnFR-HEK cells = iGluSnFR-HEK cells cultured alone, multiphoton imaging; assay type: cell-based; conditions: glutamate 100 μM
Procedure: HEK 293/17 cells (ATCC CRL-11268) were maintained in DMEM (Gibco 11965) supplemented with 10% FBS (Corning 35-010-CV), Glutamax, and non-essential amino acids (both Gibco). Cells were transfected with 1 ug plasmid pCMV(MinDis) iGluSnFR (Addgene 41732) using 1 ul Lipofectamine 2000 in Optimem (Gibco) in 24-well plates.
The 5.2 Kb iGluSnFR (pCMV(MinDis).iGluSnFR was a gift from Loren Looger; Addgene plasmid #41732) was moved to the zeocin resistant backbone of Addgene #51694 (DRH296: FCK-Optopatch2 was a gift from Adam Cohen) as a NdeI+XhoI fragment. The resulting plasmid (pMEK8) was transfected into HEK 293/17 cells (ATCC CRL-11268) using 1 μl Lipofectamine 2000/ug DNA. Cells were maintained in DMEM (Gibco 11965) supplemented with 10% FBS (Corning 35-010-CV), Glutamax, non-essential amino acids (both Gibco) and 3 μl/ml zeocin ([…], Invitrogen).
CckCRE_tdTomato enteroendocrine cells were isolated as described above. Isolated cells were mixed with iGluSnFR-HEK cells at a ratio of 10:1, then plated on 1% Matrigel coated coverslips. Control iGluSnFR-HEK cells were plated alone. Cells were incubated for 12-18 hours before imaging. Coverslips were imaged using a multiphoton microscopy system (Bruker Ultima IV with a Chameleon Vision II tunable laser). Imaging frames were captured at 1.876 fps, using 920 nm light. Imaging series were analyzed using Fiji (ImageJ), and cell traces were plotted with Excel.

glutamate receptor = assay: Antagonist studies: glutamate receptor antagonists on vagal nerve firing rate response to sucrose or 473 nm laser; assay type: in vivo, mouse; conditions: sucrose-300 mM; for time to peak (speed) of vagal response to sucrose: after KA/AP3 (150 μg/kg kynurenic acid + 1 mg/kg AP-3) or KA 150 μg/kg alone, sucrose alone 92.8 seconds, 1 mg/kg
Procedure: Wild-type control (n=5-9), CckCRE_ChR2-tdTomato (n=6), CckCRE_Halorhodopsin-YFP (n=5), and Vglut1CRE_ChR2-YFP (n=6) mice were used for vagal recordings. Mice were anesthetized with 3 mg/g-mouse urethane 1 hour before surgery then with 0.5-1% isoflurane. A section of neck skin was removed between the jaw and clavicle. The thyroid was reflected bilaterally, and the carotid bundle was exposed using coarse dissection. The carotid nerve was separated from the vagus nerve using a curved blunt probe. Two platinum iridium wires (0.001″ diameter, PTFE coated, 10% Ir 90% Pt; Medwire by Sigmund Cohn Corp) were looped around the vagus nerve for recording. Mineral oil was used to insulate the vagus nerve from surrounding tissue. The small intestine was exposed by removing a section of skin and peritoneum. A 20 gauge gavage needle was surgically inserted through the stomach wall and into the duodenum. The gavage needle was sutured in place beyond the pyloric sphincter. Saline and stimulant tubes were connected to the gavage needle. For optogenetic experiments, a fiber optic cable (FT020, ThorLabs) was threaded through the gavage needle into the lumen of the duodenum. A perfusion exit incision was made 10 cm distal to the pyloric sphincter. During each recording, PBS was constantly perfused through the duodenum using a peristaltic pump (Cole-Parmer) at the lowest setting for a flow rate of ˜400 uL PBS per minute. Stimulation conditions were applied after recording 2 minutes of baseline activity. During whole nutrient stimulation conditions, PBS perfusion was continuous and 200 μL of ENSURE® was perfused through the second tube for 1 minute using a syringe pump. […] During CCK stimulation conditions, PBS perfusion was continuous, and 200 μL of 2.9 μM CCK octapeptide-sulfated (BaChem) was perfused through the second tube for 1 minute using a syringe pump (Fusion 200, Chemyx) for a final concentration of ˜870 nM CCK in PBS (10 μg/kg dose). […] Final stimulant concentrations were determined using the ratio of dilution and confirmed by osmolarity testing (Model 3320 Osmometer, Advanced Instruments Inc.). […]
Extracellular voltage was recorded from a pair of platinum iridium wires as described above. […] The raw data was analyzed using a spike sorting algorithm (MATLAB by MathWorks). Spikes were detected using simple threshold detection based on RMS noise. The firing rate was calculated using a Gaussian kernel smoothing algorithm (200-ms time scale).
Stimulation response was quantified as the maximum firing rate after stimulation (stimulant conditions) or during recording (baseline). […] Maximum firing rate was analyzed across genotype, stimulation condition, and their interaction term by ANOVA, followed by HSD post hoc testing (iMP by SAS Institute).

[1] = tested on: ionotropic glutamate receptor; assay: Patch-clamp of nodose neurons co-cultured with CckCRE_ChR2 cells, photo-stimulation and microperfusion of glutamate blocker; assay type: cell-based, mouse; conditions: kynurenic acid 3 mM, n=4 pairs
Procedure: The small intestines of CckGFP and CckCRE_ChR2-tdTomato mice were dissected and flushed twice with cold PBS. The intestine was cut open lengthwise and cut again into ˜1 cm pieces. Tissue pieces were incubated with 3 mM EDTA at 4° C. for 15 minutes then at 37° C. for 15 minutes. New cold PBS was added and villi and crypts were mechanically detached. Villi and crypts were spun down and further digested in Collagenase and Dispase. Cells were spun down and re-suspended in L-15 media with 5% FBS and DNase to prevent cell clumping. Cells were passed through a 70 μm then 40 μm cell strainer to isolate single cells. Then cells were sorted using Fluorescence Activated Cell sorting (BD FACSAria) selecting for GFP fluorescence cells. […]
Enteroendocrine cells and nodose neurons were co-cultured as described above. […] CCK-producing enteroendocrine cells were identified by GFP expression and neurons by their morphology and lack of fluorescence. […] At the resting membrane potential, cell properties such as input resistance, and spike threshold were determined using 200 ms steps from −40 pA to 100 pA in 20 pA increment. After that, baseline neuron activity was recorded in current-clamp or voltage-clamp for 5 min before exposure to glucose (20 mM) for 30-60 sec, followed by a wash with no glucose-containing extracellular solution. […] EPSC responses were recorded for 1 second after light stimulation. […]

vagus nerve [2] = assay: Vagus nerve recording during intraluminal (duodenal) nutrient or CCK perfusion; assay type: in vivo, mouse; conditions: for time to maximum peak firing rate after the onset of the stimulus: CCK 870 nM or sucrose 300 mM intraluminal, FIG. 30C
Procedure: Wild-type control (n=5-9), CckCRE_ChR2-tdTomato (n=6), CckCRE_Halorhodopsin-YFP (n=5), and Vglut1CRE_ChR2-YFP (n=6) mice were used for vagal recordings. Mice were anesthetized with 3 mg/g-mouse urethane 1 hour before surgery then with 0.5-1% isoflurane. A section of neck skin was removed between the jaw and clavicle. The thyroid was reflected bilaterally, and the carotid bundle was exposed using coarse dissection. The carotid nerve was separated from the vagus nerve using a curved blunt probe. Two platinum iridium wires (0.001″ diameter, PTFE coated, 10% Ir 90% Pt; Medwire by Sigmund Cohn Corp) were looped around the vagus nerve for recording. Mineral oil was used to insulate the vagus nerve from surrounding tissue. The small intestine was exposed by removing a section of skin and peritoneum. A 20 gauge gavage needle was surgically inserted through the stomach wall and into the duodenum. The gavage needle was sutured in place beyond the pyloric sphincter. Saline and stimulant tubes were connected to the gavage needle. For optogenetic experiments, a fiber optic cable (FT020, ThorLabs) was threaded through the gavage needle into the lumen of the duodenum. A perfusion exit incision was made 10 cm distal to the pyloric sphincter. During each recording, PBS was constantly perfused through the duodenum using a peristaltic pump (Cole-Parmer) at the lowest setting for a flow rate of ˜400 uL PBS per minute. Stimulation conditions were applied after recording 2 minutes of baseline activity. During whole nutrient stimulation conditions, PBS perfusion was continuous and 200 μL of ENSURE® was perfused through the second tube for 1 minute using a syringe pump. […] During CCK stimulation conditions, PBS perfusion was continuous, and 200 μL of 2.9 μM CCK octapeptide-sulfated (BaChem) was perfused through the second tube for 1 minute using a syringe pump (Fusion 200, Chemyx) for a final concentration of ˜870 nM CCK in PBS (10 μg/kg dose). […] Final stimulant concentrations were determined using the ratio of dilution and confirmed by osmolarity testing (Model 3320 Osmometer, Advanced Instruments Inc.). During 473 nm laser stimulation conditions, PBS perfusion was continuous, and the laser was pulsed for 1 minute at 40 Hz, 4 volts peak voltage, 20% duty cycle (473 nm, 80 mW laser, RGBlase).
Extracellular voltage was recorded from a pair of platinum iridium wires as described above. A differential amplifier and bandpass filter (1000× gain, 300 Hz-5 kHz bandpass filter; A-M Systems LLC) was used and the signal was processed using a data acquisition board and software (20 kHz sampling rate; Signal Express, National Instruments Corp). The raw data was analyzed using a spike sorting algorithm (MATLAB by MathWorks). Spikes were detected using simple threshold detection based on RMS noise. The firing rate was calculated using a Gaussian kernel smoothing algorithm (200-ms time scale).
Stimulation response was quantified as the maximum firing rate after stimulation (stimulant conditions) or during recording (baseline). Each trial serves as its own control by normalizing the maximum firing rate to the average baseline firing rate (defined as the first two minutes of recording, prior to stimulation onset). Mice were excluded from analysis if no sucrose response was present throughout recording. Maximum firing rate was analyzed across genotype, stimulation condition, and their interaction term by ANOVA, followed by HSD post hoc testing (iMP by SAS Institute).

[3] = tested on: intestinal CCK enteroendocrine cells; assay: Calcium imaging (GCaMP6s) of enteroendocrine cells in CckCRE_tdTomato intestinal organoids; assay type: cell-based, mouse; conditions: 10 mM sucrose; 40 mM KCl control; n=5
Procedure: For neurons, Phox2bCRE_GCaMP6s (n=3) nodose neurons were dissociated and plated. Nodose ganglia were dissected and digested in Liberase (Roche, 5401054001). Neurons were washed and filtered through a 70 μm cell strainer, then plated on 12 mm coverslips and placed in an incubator overnight. Cells were imaged 1-2 days later. Coverslips were placed in the recording chamber of a Zeiss Examiner Z1 and imaged with a Hamamatsu camera (Orca-flash4.0; C11440) using the Zeiss ZEN software package. For enteroendocrine cells, CckCRE_tdTomato organoids with transduced with ΔG-rabies-GCaMP6s. Organoids were imaged using multi photon microscopy 3-4 days after transduction. Imaging buffer (in mM: 140 NaCl, 5 KCl, 2 CaCl2, 2 MgCl2, 10 HEPES) was continuously perfused over the coverslips. […] Images were analyzed with Fiji ([…]), and cell traces were plotted with Matlab.

vagus nerve [4] = assay: Vagus nerve recording during intraluminal (duodenal) nutrient or CCK perfusion; assay type: in vivo, mouse; conditions: sucrose 300 mM delivered intraperitoneally, wild-type mice

`N[C@@H](CCC(=O)O)C(=O)O` [glutamate, reference compound] was tested, and the “fluorescence response of iGluSnFR-HEK cells cultured alone” value (iGluSnFR-HEK cells) was “did respond; also recorded: causes an increase in fluorescence”.
`O=C(O)c1cc(=O)c2ccccc2[nH]1` [kynurenic acid] was tested, and the “effect on maximum (peak) normalized vagal firing rate in response to sucrose” value (glutamate receptor; KA/AP3 = 150 μg/kg kynurenic acid + 1 mg/kg AP-3, or KA 150 μg/kg alone, wild-type mice) was “do not”, the “time to peak (speed) of vagal response to sucrose” value (glutamate receptor) was “about 180 seconds” and the “time to peak (speed) of vagal response to sucrose” value (glutamate receptor; listed as KA) was 198 s. For the same molecule, the “effect on rapid (first 60 seconds) vagal response to sucrose” value (glutamate receptor; kynurenic acid alone (150 μg/kg; dose range 1.5 μg/kg-1.5 mg/kg in FIG. 32), 1.5 mg/kg) was “suppressed; also recorded: attenuates rapid vagal response but not prolonged vagal response”, the “effect on light (470/473 nm) evoked EPSCs in connected nodose neurons” value [1] was “abolished” and the “light evoked response after the blocker is washed away” value ([1]; wash) was “recovered”.
With “CCK8: CCK octapeptide-sulfated (BaChem) [reference compound]” the “time to maximum peak firing rate after the onset of the stimulus” value (vagus nerve [2]; wild-type mice) was “about 180 s” and the “vagal firing rate (maximum)” value (vagus nerve [2]; CCK8 870 nM (10 μg/kg) infused into the intestinal lumen, wild-type mice) was “increased the vagal firing rate to a similar maximum reached by sucrose”.
`OC[C@H]1O[C@@](CO)(O[C@H]2O[C@H](CO)[C@@H](O)[C@H](O)[C@H]2O)[C@@H](O)[C@@H]1O` [sucrose] was tested, and the “magnitude of the sugar response as percent fluorescence of the KCl response” value [3] was 72.4±10.6%, the vagal firing rate (vagus nerve [4]) was “not observed; also recorded: did not increase vagal firing rate” and the “time to maximum peak firing rate after the onset of the stimulus” value (vagus nerve [2]; wild-type mice) was “about 60 s”. For the same molecule, the vagal response (vagus nerve [2]; luminal sucrose 300 mM, CckCRE_Halo-YFP mice, no laser) was “elicited a vagal response”, the vagal firing rate (vagus nerve [2]; sucrose 100 mM-300 mM (300 mM in figures) perfused intraluminally, wild-type mice, vs baseline) was “significantly increased; also recorded: stimulate” and the “time to peak of vagal response” value (vagus nerve [2]; sucrose-300 mM without antagonist, wild-type mice, average, FIG. 25D) was 92.8 s. The vagal activity (vagus nerve [2]; sucrose-300 mM, Vglut1CRE_ChR2 mice) was “stimulate vagal activity”.
